Values quoted from earlier work, collected in article PMC7904743, “WIDOCK: a reactive docking protocol for virtual screening of covalent inhibitors” (Journal of Computer-Aided Molecular Design, 2021).
Read-outs that look alike come from different tables or passages of the source.

Assays:
OTUB2 = details: experimental actives if % labeling higher than 50%, cited from earlier work
NUDT7 = details: protein labeling at 200 μM; experimental actives if % labeling higher than 50%; cited from earlier work
[1] = thiol reactivity, cited from earlier work
[2] = natural log of average kinetic rate constant
[3] = natural log of average rate constant
[4] = natural log of average rate constant k
[5] = natural logarithm of average rate constant

SMILES	OTUB2 % labeling (OTUB2; OTUB2 protein labeling)	NUDT7 % labeling (NUDT7)	ln(avg k) [1, 2]	ln(avg k) [1, 3]	OTUB2 % labeling (OTUB2)	ln(avg k) [1, 4]	ln(avg k) [1, 5]
Cc1cc(C)c(C(C)NC(=O)CCl)cc1C (stereo not drawn) [PCM-0102879, Cc1cc(C)c(C(C)NC(=O)CCl)cc1C]	17%	0%	-16.314	-16.314			
CN(Cc1ccc(F)cc1)C(=O)CCl [PCM-0102939, CN(Cc1ccc(F)cc1)C(=O)CCl]	10%	0%	-16.214	-16.214			
O=C(CCl)NNC(=O)C1CC1 [PCM-0102776, O=C(CCl)NNC(=O)C1CC1]	23%	0%	-17.370	-17.370			
COC(=O)CNC(=O)CCl [PCM-0102906, COC(=O)CNC(=O)CCl]	6%	0%	-17.517	-17.517			
O=C(CCl)N1CCN(S(=O)(=O)c2ccccc2)CC1 [PCM-0102468, O=C(CCl)N1CCN(S(=O)(=O)c2ccccc2)CC1]		0%			8%	-15.364	-15.364
CC(C)(C)NC(=O)CN1CCN(C(=O)CCl)CC1 [PCM-0102302, CC(C)(C)NC(=O)CN1CCN(C(=O)CCl)CC1]		8%			13%	-15.639	-15.639
N#Cc1ccc(Cl)cc1NC(=O)CCl [PCM-0102700, N#Cc1ccc(Cl)cc1NC(=O)CCl]		40%			17%	-16.148	-16.148
O=C(CCl)Nc1cccc(Cl)c1Cl [PCM-0102797, O=C(CCl)Nc1cccc(Cl)c1Cl]	0%	15%	-15.881	-15.881			
O=C(CCl)N1CCN(c2cnccn2)CC1 [PCM-0102889, O=C(CCl)N1CCN(c2cnccn2)CC1]	0%	0%	-15.833	-15.833			
O=C(CCl)NC(=O)Nc1ccc(Br)cc1 [PCM-0102308, O=C(CCl)NC(=O)Nc1ccc(Br)cc1]		17%			10%	-16.949	-16.949
O=C(CCl)Nc1cc(C(=O)O)ccc1Cl [PCM-0102590, O=C(CCl)Nc1cc(C(=O)O)ccc1Cl]		0%			0%	-17.114	-17.114
CC(C)(C)OC(=O)N1CCN(C(=O)CCl)CC1 [PCM-0102786, CC(C)(C)OC(=O)N1CCN(C(=O)CCl)CC1]	0%	0%	-15.946	-15.946			
CCc1nnc(NC(=O)CCl)s1 [PCM-0102166, CCc1nnc(NC(=O)CCl)s1]		21%			0%	-16.086	-16.086
O=C(CCl)Nc1cccc(-c2nnc3n2CCCCC3)c1 [PCM-0102181, O=C(CCl)Nc1cccc(-c2nnc3n2CCCCC3)c1]		0%			0%	-15.929	-15.929
CC(C)(C)NC(=O)CNC(=O)CCl [PCM-0102817, CC(C)(C)NC(=O)CNC(=O)CCl]	41%	0%	-16.378	-16.378			
CC1CCCN(C(=O)C2CCN(C(=O)CCl)CC2)C1 (stereo not drawn) [PCM-0102933, CC1CCCN(C(=O)C2CCN(C(=O)CCl)CC2)C1]	0%	0%	-15.328	-15.328			
O=C(CCl)NC(=O)Nc1ccccc1F [PCM-0102376, O=C(CCl)NC(=O)Nc1ccccc1F]		0%			0%	-15.900	-15.900
CN(Cc1ccccc1F)C(=O)CCl [PCM-0102787, CN(Cc1ccccc1F)C(=O)CCl]	0%	0%	-16.194	-16.194			
CNC(=O)NC(=O)CCl [PCM-0102534, CNC(=O)NC(=O)CCl]		0%			0%	-16.522	-16.522
CNC(=O)C1CN(C(=O)CCl)c2ccccc2O1 (stereo not drawn) [PCM-0102221, CNC(=O)C1CN(C(=O)CCl)c2ccccc2O1]		0%			15%	-15.966	-15.966
NS(=O)(=O)c1ccc(Cl)c(NC(=O)CCl)c1 [PCM-0103012, NS(=O)(=O)c1ccc(Cl)c(NC(=O)CCl)c1]	10%	0%	-15.947	-15.947			

SMILES	OTUB2 % labeling (OTUB2; OTUB2 protein labeling)	NUDT7 % labeling (NUDT7)	ln(avg k) [1, 2]	ln(avg k) [1, 3]	OTUB2 % labeling (OTUB2)	ln(avg k) [1, 4]	ln(avg k) [1, 5]
CS(=O)(=O)c1ccc(F)c(NC(=O)CCl)c1 [PCM-0103018, CS(=O)(=O)c1ccc(F)c(NC(=O)CCl)c1]	16%	0%	-15.950	-15.950			
Cc1ccccc1CN1CCN(C(=O)CCl)CC1 [PCM-0102876, Cc1ccccc1CN1CCN(C(=O)CCl)CC1]	0%	0%	-15.594	-15.594			
O=C(CCl)NNC(=O)c1cc2c(s1)CCCC2 [PCM-0102142, O=C(CCl)NNC(=O)c1cc2c(s1)CCCC2]		9%			100%	-16.868	-16.868
Cc1ccc(C(=O)O)cc1NC(=O)CCl [PCM-0102624, Cc1ccc(C(=O)O)cc1NC(=O)CCl]		0%			0%	-17.065	-17.065
O=C(CCl)Nc1nc(-c2ccc(F)cc2)cs1 [PCM-0102809, O=C(CCl)Nc1nc(-c2ccc(F)cc2)cs1]	21%	37%	-15.559	-15.559			
CC(C)(O)CNC(=O)CCl [PCM-0102554, CC(C)(O)CNC(=O)CCl]		0%			0%	-16.972	-16.972
O=C(CCl)N1CCCc2cccc(F)c21 [PCM-0103071, O=C(CCl)N1CCCc2cccc(F)c21]	0%	40%	-16.007	-16.007			
CC(C)(C)c1ccc(C(=O)NNC(=O)CCl)cc1 [PCM-0102355, CC(C)(C)c1ccc(C(=O)NNC(=O)CCl)cc1]		0%			66%	-17.324	-17.324
O=C(CCl)Nc1cc2c(cc1Br)OCCO2 [PCM-0102299, O=C(CCl)Nc1cc2c(cc1Br)OCCO2]		27%			67%	-16.302	-16.302
Cc1ccc(-n2nc(C)c(NC(=O)CCl)c2C)cc1 [PCM-0102131, Cc1ccc(-n2nc(C)c(NC(=O)CCl)c2C)cc1]		0%			0%	-16.325	-16.325
CC1CCCC(NC(=O)NC(=O)CCl)C1C (stereo not drawn) [PCM-0102332, CC1CCCC(NC(=O)NC(=O)CCl)C1C]		0%			0%	-15.913	-15.913
O=C(CCl)N1CCC(c2ccccc2)=N1 [PCM-0102150, O=C(CCl)N1CCC(c2ccccc2)=N1]		0%			0%	-14.898	-14.898
O=C(CCl)N1CCN(c2ncc(C(F)(F)F)cc2Cl)CC1 [PCM-0102378, O=C(CCl)N1CCN(c2ncc(C(F)(F)F)cc2Cl)CC1]		14%			5%	-15.476	-15.476
CCN(C(=O)CCl)c1ccccc1C [PCM-0102980, CCN(C(=O)CCl)c1ccccc1C]	0%	43%	-16.814	-16.814			
O=C(CCl)NC(=O)NCc1cccs1 [PCM-0102753, O=C(CCl)NC(=O)NCc1cccs1]	23%	0%	-15.984	-15.984			
Cc1c(Cl)cccc1NC(=O)CCl [PCM-0102130, Cc1c(Cl)cccc1NC(=O)CCl]		0%			0%	-15.962	-15.962
N#CC1(NC(=O)CCl)CCC1 [PCM-0102854, N#CC1(NC(=O)CCl)CCC1]	0%	9%	-16.080	-16.080			
Cc1cc(NC(=O)CCl)n(-c2ccccc2C)n1 [PCM-0102699, Cc1cc(NC(=O)CCl)n(-c2ccccc2C)n1]		0%			0%	-15.949	-15.949
O=C(CCl)Nc1cccc(I)c1 [PCM-0102154, O=C(CCl)Nc1cccc(I)c1]		24%			49%	-15.790	-15.790
Cc1csc(NC(=O)CCl)n1 [PCM-0102872, Cc1csc(NC(=O)CCl)n1]	0%	16%	-15.785	-15.785			
Cc1ccc(CNC(=O)CCl)cc1 [PCM-0102660, Cc1ccc(CNC(=O)CCl)cc1]		0%			63%	-16.571	-16.571
